This note sets out measurements from patent publication US10662187B2, “Bruton's tyrosine kinase inhibitors” (Zibo Biopolar Changsheng Pharmaceutical Co. Ltd., priority 2016, dated 2020).

pIC50: −log10 of the molar value. Bounds are passed on as bounds.

The target of assay [1] is T1, BTK (Homo sapiens (Human), UniProt Q06187). The experiment in a line: Btk occupancy in cellular assays (PCI-33380 labeling, Jeko-1 cells). It is filed as cell-based. The note with it: 1.5 h pre-incubation with compound, PCI-33380 5 μM 1 h. On the procedure:
Btk Occupancy in Cellular Assays
For PCI-33380 labeling of human B cells, 10^6 Jeko-1 cells were pre-incubated with compound for 1.5 h before labeling. Then cells were treated with PCI-33380 at 5 μM for 1 h. Washed, lysed in Ripa buffer containing sample reducing agent, and analyzed by SDS/PAGE and fluorescent gel scanning using a Typhoon scanner 9500 (GE Healthcare) (Ex, 532 nm; Em, 555 nm). The gel was then blotted and total Btk levels detected by standard Western blot with Btk antibody (CST).
Target sequence in this assay (Q06187 whole entry): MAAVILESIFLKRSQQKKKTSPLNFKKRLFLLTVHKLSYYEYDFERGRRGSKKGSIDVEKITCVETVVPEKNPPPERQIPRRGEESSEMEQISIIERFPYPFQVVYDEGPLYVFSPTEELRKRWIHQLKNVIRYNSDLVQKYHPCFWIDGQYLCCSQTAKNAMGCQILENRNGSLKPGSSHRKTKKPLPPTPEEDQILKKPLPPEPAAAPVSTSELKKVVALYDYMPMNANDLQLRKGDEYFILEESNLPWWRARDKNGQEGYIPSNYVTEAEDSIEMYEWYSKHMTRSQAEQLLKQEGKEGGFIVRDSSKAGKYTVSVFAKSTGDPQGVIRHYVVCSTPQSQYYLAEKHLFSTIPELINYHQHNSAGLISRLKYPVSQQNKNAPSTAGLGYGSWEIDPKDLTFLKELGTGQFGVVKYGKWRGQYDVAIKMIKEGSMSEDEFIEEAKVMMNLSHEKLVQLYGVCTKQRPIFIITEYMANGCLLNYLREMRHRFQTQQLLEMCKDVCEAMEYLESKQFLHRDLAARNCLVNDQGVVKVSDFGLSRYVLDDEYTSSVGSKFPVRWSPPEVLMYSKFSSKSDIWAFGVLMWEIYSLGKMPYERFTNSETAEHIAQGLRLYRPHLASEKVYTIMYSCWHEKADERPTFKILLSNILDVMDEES

The target of assay [2] is T1, BTK. The experiment in a line: Btk kinase assay (HTRF). Format: biochemical. The conditions noted are these: [ATP]=80 μM, BTK=3.4 nM; read-out: BTK Inhibition. The method in brief: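 HTRF read-out with enzyme, inhibitor, ATP and 1 μM peptide substrate in 50 mM Hepes pH 7.0, 0.02% NaN3, 0.01% BSA, 0.1 mM orthovanadate. Activity measured across compound concentrations against no-inhibitor controls, with no-enzyme wells as baseline.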
Target sequence in this assay (Q06187 whole entry, species assumed): as the sequence (Q06187 whole entry) above
A general note: Time-resolved FRET reads energy transfer from a long-lived donor to a nearby acceptor.

Assay [3] addresses Btk (Mus musculus (Mouse), UniProt P35991). Kind of assay: Btk occupancy in vivo (PBMCs or splenocytes, PCI-33380 labeling). The conditions noted are these: after 4 hours, Babc/L mice. On the procedure:
For analysis of Btk occupancy in Babc/L mice following oral dosing of compounds after 4 hours. Isolating peripheral blood mononuclear cells (PBMCs) with mouse peripheral blood separation kit (Hao Yang Biological Manufacture CO., LTD, Tianjin) were collected from Babc/L mice (1 ml blood from two mice). Spleens were processed to splenocytes followed by 5 min incubation in red blood cell lysing buffer (from mouse peripheral blood separation kit). PBMCs or splenocytes were then PCI-33380-labeled and lysates analyzed by fluorescent gel scanning as described in cellular assays.

In another assay the test system is Ramos cells. The experiment in a line: Calcium flux assay, anti-IgM stimulated Ramos cells. Format: cell-based. The note with it: Ramos cells stimulated with goat anti-human IgM antibody 10 μg/ml; read-out: Ramos Ca Flux. On the procedure: Calcium FluxAssay Calcium flux fluorescence-based assays were performed in […] (Hamamatsu Photonics) fluorometric imaging plate reader according to manufacturer instructions. […] Then 12.5 […] 2× dye loading solution (Fluo-4 NW Calcium Assay Kits, Invitrogen) was added per well of a 384-well plate. Afterwards, actively growing Ramos cells (ATCC) in RPM1640 medium supplemented with 10% FBS (Invitrogen) were washed and re-plated in assay buffer (from Fluo-4 NW Calcium Assay Kits, Invitrogen) to approximately 6.4×10^6/ml (80000 cells/12.5 μL in 384-well plates). The plates were incubated at 37° C. for 30 minutes, then at room temperature for an additional 30 minutes. The plates were now ready to be used in an experiment. Immediately after the transfer and a 10-s recording of baseline fluorescence, the compound treated cells were stimulated with a goat anti-human IgM antibody (10 μg/ml; Jackson Immuno Research) and read in a FDSS for 240 seconds. Difference between the signal and that at baseline, designated adjusted relative fluorescence unit, was calculated by using a custom Excel (Microsoft, Redmond, Wash.) template to determine IgM-induced calcium influx and its inhibition by compounds. The table belows show the result.
(In general: Calcium flux is commonly read through the fluorescence of an indicator in the cells.)

Sequence of Btk (P35991 whole entry): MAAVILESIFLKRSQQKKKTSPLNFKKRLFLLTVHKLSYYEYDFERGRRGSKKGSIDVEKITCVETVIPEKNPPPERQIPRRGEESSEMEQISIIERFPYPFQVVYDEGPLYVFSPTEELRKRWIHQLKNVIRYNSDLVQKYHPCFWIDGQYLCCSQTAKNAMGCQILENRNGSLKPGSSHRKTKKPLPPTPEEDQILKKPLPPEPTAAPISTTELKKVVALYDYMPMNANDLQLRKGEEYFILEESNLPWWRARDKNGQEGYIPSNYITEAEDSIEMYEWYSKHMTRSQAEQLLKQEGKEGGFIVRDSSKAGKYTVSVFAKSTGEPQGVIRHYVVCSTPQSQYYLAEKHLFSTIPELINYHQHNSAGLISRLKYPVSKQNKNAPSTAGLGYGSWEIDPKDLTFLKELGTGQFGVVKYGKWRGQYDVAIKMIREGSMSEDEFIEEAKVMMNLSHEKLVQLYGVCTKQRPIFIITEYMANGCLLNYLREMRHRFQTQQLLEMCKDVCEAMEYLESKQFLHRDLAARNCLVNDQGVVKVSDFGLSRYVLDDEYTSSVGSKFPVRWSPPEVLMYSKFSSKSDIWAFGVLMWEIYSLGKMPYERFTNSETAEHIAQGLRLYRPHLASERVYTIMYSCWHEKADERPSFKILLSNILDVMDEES

On to `C=CC(=O)N1CCC[C@@H](n2nc(-c3ccc(Oc4cccc(OC)c4Cl)cc3)c3cnccc32)C1` [Compound 2, (R)-1-(3-(3-(4-(2-chloro-3-methoxyphenoxy)phenyl)-1H-pyrazolo[4,3-c]pyridin-1-yl)piperidin-1-yl)prop-2-en-1-one], for which, on BTK [1], the “concentration sufficient to fully occupy the active site of Btk” value (“concentration sufficient” for short) is 100 nM. For the same molecule, the pIC50 at BTK [2] was greater than 8.00. Moreover, at Btk [3] (10 mg/kg single oral dose), the “Btk occupancy in vivo” value was “full occupancy”.

For `C=CC(=O)N1CC[C@@H](n2nc(-c3ccc(Oc4cccc(OC)c4F)cc3)c3cnccc32)C1` [Compound 3, (R)-1-(3-(3-(4-(2-fluoro-3-methoxyphenoxy)phenyl)-1H-pyrazolo[4,3-c]pyridin-1-yl)pyrrolidin-1-yl)prop-2-en-1-one], the “concentration sufficient” value at BTK [1] is 50 nM. For the same molecule, on BTK [2], the pIC50 is greater than 8.00. The “Btk occupancy in vivo” value on Btk [3] (10 mg/kg single oral dose) is on record as “full occupancy”.

With `C=CC(=O)N1CC[C@@H](n2nc(-c3ccc(Oc4cccc(F)c4Cl)cc3)c3cnccc32)C1` [Compound 4, (R)-1-(3-(3-(4-(2-chloro-3-fluorophenoxy)phenyl)-1H-pyrazolo[4,3-c]pyridin-1-yl)pyrrolidin-1-yl)prop-2-en-1-one], the “concentration sufficient” value at BTK [1] amounted to 100 nM. Also, at BTK [2], the pIC50 was greater than 8.00. The “Btk occupancy in vivo” value at Btk [3] (10 mg/kg single oral dose) is listed as “full occupancy”.

On to `C=CC(=O)N1CC[C@@H](n2nc(-c3ccc(Oc4ccccc4)c(Cl)c3)c3cnccc32)C1` [Compound 11, (R)-1-(3-(3-(3-chloro-4-phenoxyphenyl)-1H-pyrazolo[4,3-c]pyridin-1-yl)pyrrolidin-1-yl)prop-2-en-1-one], for which the pIC50 is greater than 8.00 at BTK [2] and 6.00 to 7.00 in the assay on Ramos cells.

As to `C=CC(=O)N1CCC[C@@H](n2nc(-c3ccc(Oc4cccc(F)c4F)cc3)c3cnccc32)C1` [Compound 17, (R)-1-(3-(3-(4-(2,3-difluorophenoxy)phenyl)-1H-pyrazolo[4,3-c]pyridin-1-yl)piperidin-1-yl)prop-2-en-1-one], at BTK [1], the “concentration sufficient” value was 100 nM. Besides, the pIC50 is greater than 8.00 on BTK [2] and 7.00 to 8.00 in the assay on Ramos cells.

Regarding `C=CC(=O)N1CC[C@@H](n2nc(-c3ccc(Oc4cccc(F)c4F)cc3)c3cnccc32)C1` [Compound 18, (R)-1-(3-(3-(4-(2,3-difluorophenoxy)phenyl)-1H-pyrazolo[4,3-c]pyridin-1-yl)pyrrolidin-1-yl)prop-2-en-1-one], the pIC50 at BTK [2] was greater than 8.00; with Ramos cells, 7.00 to 8.00.

With `C=CC(=O)N1CC[C@@H](n2nc(-c3ccc(Oc4cccc(Cl)c4F)cc3)c3cnccc32)C1` [Compound 19, (R)-1-(3-(3-(4-(3-chloro-2-fluorophenoxy)phenyl)-1H-pyrazolo[4,3-c]pyridin-1-yl)pyrrolidin-1-yl)prop-2-en-1-one], the pIC50 on BTK [2] was greater than 8.00; with Ramos cells, 7.00 to 8.00.

On to `C=CC(=O)N1CCC[C@@H](n2nc(-c3ccc(Oc4cccc(Cl)c4F)cc3)c3cnccc32)C1` [Compound 20, (R)-1-(3-(3-(4-(3-chloro-2-fluorophenoxy)phenyl)-1H-pyrazolo[4,3-c]pyridin-1-yl)piperidin-1-yl)prop-2-en-1-one], for which the pIC50 is greater than 8.00 at BTK [2] and 7.00 to 8.00 in the assay with Ramos cells.

As for `C=CC(=O)N1CC[C@@H](n2nc3ccncc3c2-c2ccc(Oc3cccc(Cl)c3Cl)cc2)C1` [Compound 41, (R)-1-(3-(3-(4-(2,3-dichlorophenoxy)phenyl)-2H-pyrazolo[4,3-c]pyridin-2-yl)pyrrolidin-1-yl)prop-2-en-1-one], the “concentration sufficient” value on BTK [1] was 100 nM. The pIC50 on BTK [2] was greater than 8.00; in the assay with Ramos cells it was 7.00 to 8.00.

Take `C=CC(=O)N1CCC[C@@H](n2nc3ccncc3c2-c2ccc(Oc3cccc(Cl)c3Cl)cc2)C1` [Compound 43, (R)-1-(3-(3-(4-(2,3-dichlorophenoxy)phenyl)-2H-pyrazolo[4,3-c]pyridin-2-yl)piperidin-1-yl)prop-2-en-1-one]: at BTK [1], the “concentration sufficient” value is 100 nM. The pIC50 on BTK [2] is greater than 8.00; in the assay with Ramos cells, 7.00 to 8.00.

Turning to `C=CC(=O)N1CC[C@@H](n2nc(-c3ccc(Sc4cccc(F)c4)cc3)c3cnccc32)C1` [Compound 58, (R)-1-(3-(3-(4-((3-fluorophenyl)thio)phenyl)-1H-pyrazolo[4,3-c]pyridin-1-yl)pyrrolidin-1-yl)prop-2-en-1-one], the values for the pIC50 on BTK [2] and in the assay on Ramos cells were greater than 8.00 and 7.00 to 8.00, respectively.

Turning to `C=CC(=O)N1CC[C@@H](n2nc(-c3ccc(Oc4ccccc4)c(F)c3)c3cnccc32)C1` [Compound 61, (R)-1-(3-(3-(3-fluoro-4-phenoxyphenyl)-1H-pyrazolo[4,3-c]pyridin-1-yl)pyrrolidin-1-yl)prop-2-en-1-one], the pIC50 is greater than 8.00 on BTK [2] and 6.00 to 7.00 in the assay with Ramos cells.

In the case of `C=CC(=O)N1CCC[C@@H](n2nc(-c3ccc(Oc4cccc(F)c4)cc3)c3cnccc32)C1` [Compound 62, (R)-1-(3-(3-(4-(3-fluorophenoxy)phenyl)-1H-pyrazolo[4,3-c]pyridin-1-yl)piperidin-1-yl)prop-2-en-1-one], the pIC50 at BTK [2] was greater than 8.00; with Ramos cells, 6.00 to 7.00.

In the case of `C=CC(=O)N1CC[C@@H](n2nc(-c3ccc(Oc4cccc(F)c4)cc3)c3cnccc32)C1` [Compound 63, (R)-1-(3-(3-(4-(3-fluorophenoxy)phenyl)-1H-pyrazolo[4,3-c]pyridin-1-yl)pyrrolidin-1-yl)prop-2-en-1-one], the pIC50 on BTK [2] was greater than 8.00; in the assay on Ramos cells, 6.00 to 7.00.

Take `C=CC(=O)N1CC[C@@H](n2nc(-c3ccc(Oc4cccc(OC)c4)cc3)c3cnccc32)C1` [Compound 64, (R)-1-(3-(3-(4-(3-methoxyphenoxy)phenyl)-1H-pyrazolo[4,3-c]pyridin-1-yl)pyrrolidin-1-yl)prop-2-en-1-one]: the pIC50 is greater than 8.00 on BTK [2] and 7.00 to 8.00 in the assay on Ramos cells.

Turning to `C=CC(=O)N1CC[C@@H](n2nc(-c3ccc(Oc4cccc(OC)c4F)cc3)c3cncc(OC)c32)C1` [Compound 79, (R)-1-(3-(3-(4-(2-fluoro-3-methoxyphenoxy)phenyl)-7-methoxy-1H-pyrazolo[4,3-c]pyridin-1-yl)pyrrolidin-1-yl)prop-2-en-1-one], at BTK [1], the “concentration sufficient” value is given as 50 nM. The pIC50 on BTK [2] was greater than 8.00.

`C=CC(=O)N1CC[C@@H](n2nc(-c3ccc(Oc4cccc(OC)c4F)cc3)c3cncc(OCC)c32)C1` [Compound 80, (R)-1-(3-(7-cthoxy-3-(4-(2-fluoro-3-methoxyphenoxy)phenyl)-1H-pyrazolo[4,3-c]pyridin-1-yl)pyrrolidin-1-yl)prop-2-en-1-one]: on BTK [1], the “concentration sufficient” value was determined as 50 nM. For the same molecule, the pIC50 on BTK [2] is greater than 8.00.

As to `C=CC(=O)N1CCCC1Cn1nc(-c2ccc(Oc3cccc(OC)c3F)cc2)c2cncc(OC)c21` (stereo not shown) [Compound 91, 1-(2-((3-(4-(2-fluoro-3-methoxyphenoxy)phenyl)-7-methoxy-1H-pyrazolo[4,3-c]pyridin-1-yl)methyl)pyrrolidin-1-yl)prop-2-en-1-one], the pIC50 at BTK [2] is greater than 8.00. The “Btk occupancy in vivo” value at Btk [3] (5 mg/kg single oral dose) is listed as “full occupancy”.

With `C=CC(=O)N1CCC[C@@H](n2nc(-c3ccc(Oc4cccc(OC)c4F)cc3)c3cncc(OCCO)c32)C1` [Compound 98, (R)-1-(3-(3-(4-(2-fluoro-3-methoxyphenoxy)phenyl)-7-(2-hydroxyethoxy) 1H-pyrazolo[4,3-c]pyridin-1-yl)piperidin-1-yl)prop-2-en-1-one], the “concentration sufficient” value on BTK [1] is given as 100 nM. Besides, the pIC50 at BTK [2] was greater than 8.00.

With `C=CC(=O)N1CCC[C@@H](n2nc(-c3ccc(Oc4cccc(OC)c4F)cc3)c3cncc(OC4CCOC4)c32)C1` (stereo partly drawn) [Compound 99, 1-((3R)-3-(3-(4-(2-fluoro-3-methoxyphenoxy)phenyl)-7-((tctrahydrofuran-3-yl)oxy)-1H-pyrazolo[4,3-c]pyridin-1-yl)piperidin-1-yl)prop-2-en-1-one], the “concentration sufficient” value at BTK [1] is given as 100 nM. For the same molecule, the pIC50 at BTK [2] is greater than 8.00.
